What follows are compounds tested against T1, human ENPP1 enzymatic domain (Homo sapiens, UniProt P22413) (assay: ENPP1 Enzymatic Inhibition Assay (2′3′-cGAMP substrate, AMP-Glo luminescence)). Conditions: 1 nM ENPP1, 20 uM 2′3′-cGAMP, 30 minutes at 37° C.
T1 construct: recombinant protein containing the human ENPP1 enzymatic domain; purchased Viva Biotech
T1 sequence (P22413 191-591 limits assumed): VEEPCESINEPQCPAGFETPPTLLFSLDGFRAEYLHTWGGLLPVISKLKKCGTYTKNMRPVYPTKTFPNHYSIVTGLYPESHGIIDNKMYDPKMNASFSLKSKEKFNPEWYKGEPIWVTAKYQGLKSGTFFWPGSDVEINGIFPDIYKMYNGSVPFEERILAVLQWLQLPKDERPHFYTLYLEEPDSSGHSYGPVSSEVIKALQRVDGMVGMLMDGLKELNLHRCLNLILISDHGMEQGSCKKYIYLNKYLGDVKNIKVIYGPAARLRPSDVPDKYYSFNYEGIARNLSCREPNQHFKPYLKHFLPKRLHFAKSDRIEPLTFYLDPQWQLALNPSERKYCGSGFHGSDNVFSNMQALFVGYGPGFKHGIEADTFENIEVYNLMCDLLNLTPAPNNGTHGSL
Format: biochemical
Experimental: The inhibition of ENPP1's phosphodiesterase activity were tested in a purified enzymatic assay using 2′3′-cyclic GAMP as a substrate which allowed for the release of cleaved AMP to be monitored using a luminescent assay.
Putative inhibitors were diluted in assay buffer (50 mM Tris pH 8.0, 250 mM NaCl, 0.5 mM CaCl2), 1 uM ZnCl2, 1% DMSO) and pre-incubated for 15 minutes at 37° C. with recombinant protein containing the human ENPP1 enzymatic domain (Viva Biotech). The enzymatic reaction was initiated upon addition of the 2′3′-cGAMP substrate. The final reaction concentrations were 1 nM ENPP1 and 20 uM 2′3′-cGAMP substrate in a 25 uL volume. Inhibitor concentrations ranged from 10 uM to 0.056 nM. The reaction was incubated for 30 minutes at 37° C.
After reacting for 30 minutes, the amount of AMP generated from the cleavage of 2′3′-cGAMP was determined using the Promega AMP-Glo method according to the manufacturer's protocol. First, AMP-Glo reagent 1 was added and incubated with the reaction mix for 1 hour at room temperature. Second, AMP Detection solution was added and the mixture was incubated for an additional hour. The luminescence of the mixture was read on a Perkin Elmer Ensight plate reader.
The maximum and minimum levels of ENPP1 activity were established using no inhibitor and no enzyme controls, respectively. The activity observed using ENPP1 inhibitors was quantified as the percent of activity relative to these controls. IC50 values were calculated using CDD Vault by fitting a sigmoidal variable slope nonlinear regression model to the data.

| Compound | IC50 |
| --- | --- |
| COc1ccc2c(Nc3ccc([S@](=N)(=O)N[C@@H](C)CO)cc3)ccnc2c1 [Compound 39, (R)-N-((S)-1-hydroxypropan-2-yl)-4-((7-methoxyquinolin-4-yl)amino)benzenesulfonimidamide] | < 10 nM |
| COc1ccc2c(Nc3ccc([S@@](=N)(=O)N[C@@H](C)CO)cc3)ccnc2c1 [Compound 40, (S)-N-((S)-1-hydroxypropan-2-yl)-4-((7-methoxyquinolin-4-yl)amino)benzenesulfonimidamide] | 10 to 100 nM |
| COc1ccc2c(Nc3ccc([S@](=N)(=O)N[C@@H](C)c4ccnn4C)cc3)ccnc2c1 [Compound 41, (R)-4-((7-methoxyquinolin-4-yl)amino)-N-((S)-1-(1-methyl-1H-pyrazol-5-yl)ethyl)benzenesulfonimidamide] | 10 to 100 nM |
| COc1ccc2c(Nc3ccc([S@@](=N)(=O)N[C@@H](C)c4ccnn4C)cc3)ccnc2c1 [Compound 42, (S)-4-((7-methoxyquinolin-4-yl)amino)-N-((S)-1-(1-methyl-1 H-pyrazol-5-yl)ethyl)benzenesulfonimidamide] | < 10 nM |
| COc1ccc2c(Oc3ccc([S@](=N)(=O)NC[C@H](O)C(C)(C)C)cc3)ccnc2c1 [Compound 43, (R)-N-((R)-2-hydroxy-3,3-dimethylbutyl)-4-((7-methoxyquinolin-4-yl)oxy)benzenesulfonimidamide] | < 10 nM |
| COc1ccc2c(Oc3ccc([S@@](=N)(=O)NC[C@H](O)C(C)(C)C)cc3)ccnc2c1 [Compound 44, (S)-N-((R)-2-hydroxy-3,3-dimethylbutyl)-4-((7-methoxyquinolin-4-yl)oxy)benzenesulfonimidamide] | 10 to 100 nM |
| COc1ccc2c(Nc3ccc([S@](=N)(=O)NC[C@H](C)O)cc3F)ccnc2c1 [Compound 45, (R)-3-fluoro-N-((S)-2-hydroxypropyl)-4-((7-methoxyquinolin-4-yl)amino)benzenesulfonimidamide] | 10 to 100 nM |
| COc1ccc2c(Nc3ccc([S@@](=N)(=O)NC[C@H](C)O)cc3F)ccnc2c1 [Compound 46, (S)-3-fluoro-N-((S)-2-hydroxypropyl)-4-((7-methoxyquinolin-4-yl)amino)benzenesulfonimidamide] | < 10 nM |
| COc1ccc2c(Nc3ccc([S@](=N)(=O)NC[C@H](C)O)c(F)c3)ccnc2c1 [Compound 47, (R)-2-fluoro-N-((S)-2-hydroxypropyl)-4-((7-methoxyquinolin-4-yl)amino)benzenesulfonimidamide] | < 10 nM |
| COc1ccc2c(Nc3ccc([S@@](=N)(=O)NC[C@H](C)O)c(F)c3)ccnc2c1 [Compound 48, (S)-2-fluoro-N-((S)-2-hydroxypropyl)-4-((7-methoxyquinolin-4-yl)amino)benzenesulfonimidamide] | < 10 nM |
| COc1ccc2c(Nc3ccc([S@](=N)(=O)NCCCn4cnnc4)cc3)ccnc2c1 [Compound 49, (R)-N-(3-(4H-1,2,4-triazol-4-yl)propyl)-4-((7-methoxyquinolin-4-yl)amino)benzenesulfonimidamide] | < 10 nM |
| COc1ccc2c(Nc3ccc([S@@](=N)(=O)NCCCn4cnnc4)cc3)ccnc2c1 [Compound 50, (S)-N-(3-(4H-1,2,4-triazol-4-yl)propyl)-4-((7-methoxyquinolin-4-yl)amino)benzenesulfonimidamide] | < 10 nM |
| COc1cc2nccc(Nc3ccc([S@](=N)(=O)NC[C@@H](C)O)cc3)c2cc1OC [Compound 51, (R)-4-((6,7-dimethoxyquinolin-4-yl)amino)-N-((R)-2-hydroxypropyl)benzenesulfonimidamide] | 10 to 100 nM |
| COc1cc2nccc(Nc3ccc([S@@](=N)(=O)NC[C@@H](C)O)cc3)c2cc1OC [Compound 52, (S)-4-((6,7-dimethoxyquinolin-4-yl)amino)-N-((R)-2-hydroxypropyl)benzenesulfonimidamide] | < 10 nM |
| COc1ccc2c(Nc3ccc([S@](=N)(=O)NCCO)cc3)ccnc2c1 [Compound 53, (R)-N-(2-hydroxyethyl)-4-((7-methoxyquinolin-4-yl)amino)benzenesulfonimidamide] | < 10 nM |

Source: patent publication US20240382474A1, “ENPP1 MODULATORS AND USES THEREOF” (Vir Biotechnology, Inc., priority 2021, published 2024)
